Source: patent US6716833B2, “Acetylenic α-amino acid-based sulfonamide hydroxamic acid tace inhibitors” (priority 1999, dated 2004)
Where two headings read alike, the source gives them in different places.

Target: TNF-α converting enzyme (TACE) (Homo sapiens, UniProt P78536)
Assay: TACE inhibition (fluorescent peptidyl substrate)
Type: biochemical
Conditions: Table 15
[1] = IC 50 nM (In Vitro Inhibition of TACE)

TNF-α converting enzyme (TACE), sequence (P78536 215-824, species assumed): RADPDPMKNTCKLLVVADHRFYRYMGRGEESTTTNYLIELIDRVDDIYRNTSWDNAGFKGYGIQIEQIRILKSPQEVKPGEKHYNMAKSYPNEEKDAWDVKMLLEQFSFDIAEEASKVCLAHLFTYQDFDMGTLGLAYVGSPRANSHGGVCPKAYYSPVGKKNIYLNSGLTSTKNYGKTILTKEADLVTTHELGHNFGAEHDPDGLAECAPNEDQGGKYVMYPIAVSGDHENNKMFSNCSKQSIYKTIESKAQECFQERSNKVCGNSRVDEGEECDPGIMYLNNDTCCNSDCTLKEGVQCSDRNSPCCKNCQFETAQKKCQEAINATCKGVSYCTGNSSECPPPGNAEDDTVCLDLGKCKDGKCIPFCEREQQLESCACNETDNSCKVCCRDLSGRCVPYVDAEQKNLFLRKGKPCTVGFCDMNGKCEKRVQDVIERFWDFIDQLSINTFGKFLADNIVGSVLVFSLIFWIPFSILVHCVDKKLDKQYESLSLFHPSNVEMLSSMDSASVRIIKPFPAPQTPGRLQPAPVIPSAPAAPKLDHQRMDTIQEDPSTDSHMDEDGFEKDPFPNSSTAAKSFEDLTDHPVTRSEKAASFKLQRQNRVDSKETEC

IC50 [1]	SMILES	further results
106 nM	CC#CCOc1ccc(S(=O)(=O)N[C@H](CCCCNC(=O)/C=C/c2ccccc2)C(=O)NO)cc1 [Example 366, (E)-N-[(5R)-5-({[4-(But-2-ynyloxy)phenyl]sulfonyl}amino)-6-(hydroxyamino)-6-oxohexyl]-3-phenylprop-2-enamide]	–
–	CC#CCOc1ccc(S(=O)(=O)NC(CC(=O)O)C(=O)NO)cc1 (stereo not drawn) [Example 67]	% Inhibition at 1 uM (In Vitro Inhibition of TACE): 46.2%
11.9 nM	CC#CCOc1ccc(S(=O)(=O)N2CCCC[C@@H]2C(=O)NO)cc1 [Example 318, (2R)-1-{[4-(But-2-ynyloxy)phenyl]sulfonyl}-N-hydroxypiperidine-2-carboxamide]	–
5.89 nM	CC#CCOc1ccc(S(=O)(=O)N[C@H](CCCCNC(=O)C2CCCCC2)C(=O)NO)cc1 [Example 354, N-[(5R)-5-({[4-(But-2-ynyloxy)phenyl]sulfonyl}amino)-6-(hydroxyamino)-6-oxohexyl]cyclohexanecarboxamide]	–
3.39 nM	CC#CCOc1ccc(S(=O)(=O)N[C@H](CCCCNC(=O)Cc2ccccc2)C(=O)NO)cc1 [Example 363, (2R)-2-({[4-(But-2-ynyloxy)phenyl]sulfonyl}amino)-N-hydroxy-6-[(2-phenylacetyl)amino]hexanamide]	–
26.5 nM	CC#CCOc1ccc(S(=O)(=O)N[C@H](CCCNC(=O)CN2CCN(C)CC2)C(=O)NO)cc1 [Example 377, (2R)-2-({[4-(but-2-ynyloxy)Phenyl]sulfonyl}amino)-N-hydroxy-5-{[2-(4-methylpiperazin-1-yl)acetyl]amino}pentanamide]	–
25 nM	CC#CCOc1ccc(S(=O)(=O)N[C@H](CCCN)C(=O)NO)cc1 [Example 314, (2R)-5-Amino-2-({[4-(but-2-ynyloxy)phenyl]sulfonyl}amino)-N-hydroxypentanamide]	–
7.1 nM	CC#CCOc1ccc(S(=O)(=O)N2CCC[C@@H]2C(=O)NO)cc1 [Example 82]	–
4.21 nM	CC#CCOc1ccc(S(=O)(=O)N[C@H](CCCNC(=O)c2sccc2Cl)C(=O)NO)cc1 [Example 333, N-[(4R)-4-({[4-(But-2-ynyloxy)phenyl]sulfonyl}amino)-5-(hydroxyamino)-5-oxopentyl]-3-chlorothiophene-2-carboxamide]	–
5.24 nM	CC#CCOc1ccc(S(=O)(=O)N[C@H](CCCNC(=O)Cc2ccc([N+](=O)[O-])cc2)C(=O)NO)cc1 [Example 344, (2R)-2-({[4-(But-2-ynyloxy)phenyl]sulfonyl}amino)-N-hydroxy-5-{[2-(4-nitrophenyl)acetyl]amino}pentanamide]	–
22.8 nM	CC#CCOc1ccc(S(=O)(=O)N[C@H](CCCNC(=O)CNCc2ccccc2)C(=O)NO)cc1 [Example 378, (2R)-5-{[2-(Benzylamino)acetyl]amino}-2-({[4-(but-2-ynyloxy)phenyl]sulfonyl}amino)-N-hydroxypentanamide]	–
9.28 nM	CC#CCOc1ccc(S(=O)(=O)N[C@H](CCCCNC(=O)c2ccncc2)C(=O)NO)cc1 [Example 359, N-[(5R)-5-({[4-(But-2-ynyloxy)phenyl]sulfonyl}amino)-6-(hydroxyamino)-6-oxohexyl]isonicotinamide]	–
–	CC#CCOc1ccc(S(=O)(=O)NC(CSCNC(C)=O)C(=O)NO)cc1 (stereo not drawn) [Example 96]	% Inhibition at 1 uM (In Vitro Inhibition of TACE): 22%
14.7 nM	CC#CCOc1ccc(S(=O)(=O)N2CSC[C@@H]2C(=O)NO)cc1 [Example 324, (4S)-3-{[4-(But-2-ynyloxy)phenyl]sulfonyl}-N-hydroxy-1,3-thiazolidine-4-carboxamide]	–
6.5 nM	CC#CCOc1ccc(S(=O)(=O)N[C@H](CCCNC(=O)C2CCCCC2)C(=O)NO)cc1 [Example 335, N-[(4R)-4-({[4-(But-2-ynyloxy)phenyl]sulfonyl}amino)-5-(hydroxyamino)-5-oxopentyl]cyclohexanecarboxamide]	–
14.6 nM	CC#CCOc1ccc(S(=O)(=O)N[C@H](CCCCNC(=O)c2ccsc2)C(=O)NO)cc1 [Example 365, N-[(5R)-5-({[4-(But-2-ynyloxy)phenyl]sulfonyl}amino)-6-(hydroxyamino)-6-oxohexyl]thiophene-3-carboxamide]	–
420 ± 50 nM	CC#CCOc1ccc(S(=O)(=O)N[C@@H](CCCNC(=N)N)C(=O)NO)cc1 [Example 64]	–

IC50 [1]	SMILES	further results
283 ± 42 nM	CC#CCOc1ccc(S(=O)(=O)N[C@@H](COCc2ccccc2)C(=O)NO)cc1 [Example 97]	–
10.8 ± 3.7 nM	CC#CCOc1ccc(S(=O)(=O)N[C@H](CCSC)C(=O)NO)cc1 [Example 80]	–
462 ± 58 nM	CC#CCOc1ccc(S(=O)(=O)N[C@@H](CC(C)C)C(=O)NO)cc1 [Example 90]	–
–	CC#CCOc1ccc(S(=O)(=O)NC(Cc2ccc(O)cc2)C(=O)NO)cc1 (stereo not drawn) [Example 102]	% Inhibition at 1 uM (In Vitro Inhibition of TACE): 27.3%
6.25 nM	CC#CCOc1ccc(S(=O)(=O)N[C@H](CCCNC(=O)/C=C/c2ccccc2)C(=O)NO)cc1 [Example 348, (E)-N-[(4R)-4-({[4-(But-2-ynyloxy)phenyl]sulfonyl}amino)-5-(hydroxyamino)-5-oxopentyl]-3-phenylprop-2-enamide]	–
10.5 nM	CC#CCOc1ccc(S(=O)(=O)N[C@H](CO)C(=O)NO)cc1 [Example 319, (2R)-2-({[4-(But-2-ynyloxy)phenyl]sulfonyl}amino)-N,3-dihydroxypropanamide]	–
–	CC#CCOc1ccc(S(=O)(=O)N[C@H](Cc2ccc(F)c(F)c2)C(=O)NO)cc1 [Example 315, (2R)-2-({[4-(But-2-ynyloxy)phenyl]sulfonyl}amino)-3-(3,4-digluorophenyl)-N-hydroxypropanamide]	IC50 (read-out: IC 50 nM (In Vitro Inhibition of TACE)): 5.7 nM
4.88 nM	CC#CCOc1ccc(S(=O)(=O)N[C@H](CCCNC(=O)c2cccnc2)C(=O)NO)cc1 [Example 341, N-[(4R)-4-({[4-(But-2-ynyloxy)phenyl]sulfonyl}amino)-5-(hydroxyamino)-5-oxopentyl]nicotinamide]	–
6.88 nM	CC#CCOc1ccc(S(=O)(=O)N[C@H](CCCNC(=O)c2ccc3[nH]cnc3c2)C(=O)NO)cc1 [Example 329, N-[(4R)-4-({[4-(But-2-ynyloxy)phenyl]sulfonyl}amino)-5-(hydroxyamino)-5-oxopentyl]-1H-benzimidazole-5-carboxamide]	–
–	CC#CCOc1ccc(S(=O)(=O)NC(Cc2c[nH]cn2)C(=O)NO)cc1 (stereo not drawn) [Example 87]	% Inhibition at 1 uM (In Vitro Inhibition of TACE): 47.8%
387 nM	CC#CCOc1ccc(S(=O)(=O)N[C@H](CC(N)=O)C(=O)NO)cc1 [Example 75]	–
45.1 ± 9.5 nM	CC#CCOc1ccc(S(=O)(=O)N[C@H](Cc2c[nH]c3ccccc23)C(=O)NO)cc1 [Example 83]	–
24.6 nM	CC#CCOc1ccc(S(=O)(=O)N[C@H](CCCNS(=O)(=O)c2cn(C)cn2)C(=O)NO)cc1 [Example 375, (2R)-2-({[4-(but-2-ynyloxy)Phenyl]sulfonyl}amino)-N-hydroxy-5-{[(1-methyl-1H-imidazol-4-yl)sulfonyl]amino}pentanamide]	–
6.9 nM	CC#CCOc1ccc(S(=O)(=O)N2Cc3ccccc3C[C@@H]2C(=O)NO)cc1 [Example 325, (3R)-2-{[4-(But-2-ynyloxy)phenyl]sulfonyl}-N-hydroxy-1,2,3,4-tetrahydroisoquinoline-3-carboxamide]	–
13.4 nM	CC#CCOc1ccc(S(=O)(=O)N[C@H](CCc2ccccc2)C(=O)NO)cc1 [Example 305, (2R)-2-({[4-(But-2-ynyloxy)phenyl]sulfonyl}amino)-N-hydroxy-4-phenylbutanamide]	–
6.9 ± 3.3 nM	CC#CCOc1ccc(S(=O)(=O)N[C@H](CC2CCCCC2)C(=O)NO)cc1 [Example 77]	–
